Measured values reported in PubChem BioAssay (NCI).
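48-hour exposure; five concentrations; linearly interpolated endpoints. TGI is the concentration that stops growth completely.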

Legend:
Experiment in all cases: NCI-60 cell line screen, 48 h
HCC-2998 colon = tested on: HCC-2998 colon
KM12 colon = tested on: KM12 colon
MCF7 breast = tested on: MCF7 breast
MDA-MB-435 = tested on: MDA-MB-435
OVCAR-3 ovarian = tested on: OVCAR-3 ovarian
LXFL 529 NSCLC = tested on: LXFL 529 NSCLC
DMS 114 small cell lung = tested on: DMS 114 small cell lung
DMS 273 small cell lung = tested on: DMS 273 small cell lung
M19-MEL melanoma = tested on: M19-MEL melanoma
KM20L2 colon = tested on: KM20L2 colon
DLD-1 colon = tested on: DLD-1 colon
XF 498 CNS = tested on: XF 498 CNS
HOP-18 NSCLC = tested on: HOP-18 NSCLC
SNB-78 CNS = tested on: SNB-78 CNS

Row | Structure (SMILES) | TGI (HCC-2998 colon) | TGI (KM12 colon) | TGI (MCF7 breast) | TGI (MDA-MB-435) | TGI (OVCAR-3 ovarian) | TGI (LXFL 529 NSCLC) | TGI (DMS 114 small cell lung) | TGI (DMS 273 small cell lung) | TGI (M19-MEL melanoma) | TGI (KM20L2 colon) | TGI (DLD-1 colon) | TGI (XF 498 CNS) | TGI (HOP-18 NSCLC) | TGI (SNB-78 CNS)
1 | CC(=O)OC1COC(Nc2nc(NCc3ccccc3)n(C)c(=O)c2N=O)C(OC(C)=O)C1OC(C)=O (configuration not stated) | > 10 µM | > 10 µM | > 10 µM | > 10 µM | > 10 µM |  |  |  |  |  |  |  |  | 
2 | Oc1ccc(Cl)cc1CN1CCN(Cc2cc(Cl)ccc2O)C1 | 2.97 µM | 3.49 µM | 24.1 µM | 7.92 µM | 11.8 µM |  |  |  |  |  |  |  |  | 
3 | COc1ccc(N2C=Nn3c(nc4sc5c(c4c3=O)CCCC5)C2)cc1 | > 100 µM | > 100 µM | > 100 µM | > 100 µM | > 100 µM |  |  |  |  |  |  |  |  | 
4 | CCNC(=O)c1c(O)c2ccccc2[nH]c1=O | > 100 µM | > 100 µM | > 100 µM | > 100 µM | > 100 µM |  |  |  |  |  |  |  |  | 
5 | CC(C)=CCC/C(C)=C/CC/C(C)=C/CC/C(=C/CC/C(C)=C\CC/C(C)=C/CC/C(C)=C/CC/C(C)=C/Cc1cc(O)ccc1O)CO | > 42.1 µM | 4.16 µM | 15.2 µM | > 31.8 µM | 16.5 µM |  |  |  |  |  |  |  |  | 
6 | C=CCO[C@]1(CC=C)C(=O)C(=O)OC1C1COC(C)(C)O1 (some centres not stated) | > 100 µM | 39.3 µM | 42 µM | > 100 µM | > 100 µM |  |  |  |  |  |  |  |  | 
7 | C=C1C(=O)O[C@@H]2C=C(C)C3=CC(=O)[C@](C)(C[C@H](OC(=O)/C(C)=C\C)[C@@H]12)O3 | 3.06 µM | 2.99 µM | 1.63 µM | 3.74 µM | 1.71 µM |  |  |  |  |  |  |  |  | 
8 | CC[C@H]1C=CCC[C@@]2(C[C@@H]3CC[C@H]4[C@@H](C(=O)OCCCCCCCCCCCCCCCC(=O)N(CCCN)C[C@@H](O)CCN)[C@@]5(CCC[C@@H](C)O5)NC(=[N+]34)N2)O1 | 3.12 µM | 2.91 µM | 3.16 µM | 2.88 µM | > 10 µM |  |  |  |  |  |  |  |  | 
9 | c1csc(C[N+]23CN4CN(CN(C4)C2)C3)c1 | 34.1 µM | > 100 µM |  |  | > 100 µM | 43.1 µM | 40.2 µM | 41.8 µM | 56 µM | 55.7 µM | > 100 µM |  |  | 
10 | CC(=O)N=C1N(/C=C2\C(=O)Oc3ccccc3C2=O)C(=O)/C(=C/c2ccc(Cl)cc2Cl)N1C | > 100 µM | > 100 µM | > 100 µM | > 100 µM | > 100 µM |  |  |  |  |  |  |  |  | 
11 | CC(C)C1=CC23CCC4C(C)(C(=O)O)CCCC4(C)C2CC1C1C(=O)N(c2ccccc2)C(=O)C13 (configuration not stated) |  | > 100 µM |  |  | > 100 µM | > 100 µM | > 100 µM | > 100 µM | > 100 µM | > 100 µM | > 100 µM | > 100 µM | > 100 µM | 
12 | CC(C)C(N)=O |  | > 5000 µM |  |  |  | > 5000 µM | > 5000 µM | > 5000 µM | > 5000 µM |  | > 5000 µM |  | > 5000 µM | > 5000 µM
13 | CCOC(=O)C(NC(=O)c1ccccc1)(N1CCOCC1)C(F)(F)F (configuration not stated) | > 100 µM | > 100 µM | > 100 µM | > 100 µM | > 100 µM |  |  |  |  |  |  |  |  | 
14 | O=C(N/N=C(/COc1ccc([N+](=O)[O-])cc1)N=Cc1ccncc1)c1ccncc1 | > 100 µM | > 100 µM | > 100 µM | > 100 µM | > 100 µM |  |  |  |  |  |  |  |  | 
15 | CCN(CC)CCNC(=O)c1cn2c(ccc3sc4ccccc4c(=O)c32)n1 | 24.3 µM | 24.9 µM | 38.2 µM | 54 µM | 26.7 µM |  |  |  |  |  |  |  |  | 
16 | Cc1c(C(=O)/C=C/c2ccc(N(C)C)cc2)c(=O)n(-c2ccccc2)n1C | > 100 µM | > 100 µM |  |  | > 100 µM | > 100 µM | > 100 µM | > 100 µM | > 100 µM | > 100 µM |  | > 100 µM |  | > 100 µM
17 | Cc1ccc2oc(=O)c(C(=O)Nc3nc(C45CC6CC(CC(C6)C4)C5)cs3)cc2c1 | > 100 µM | > 100 µM | > 100 µM | > 100 µM | > 100 µM |  |  |  |  |  |  |  |  | 
18 | CC1(C)C2CC(=O)C1(C)C(OCc1ccccc1)C2 (configuration not stated) | > 100 µM | > 100 µM | > 100 µM | > 100 µM | > 100 µM |  |  |  |  |  |  |  |  | 
19 | Nc1nn2c(nc(N)c3c(N)[nH]nc32)c1N=Nc1ccc(Br)cc1 | > 100 µM | > 75.8 µM | > 100 µM | > 27.9 µM | > 78 µM |  |  |  |  |  |  |  |  | 
20 | COc1cc2c(=O)cnoc2cc1O | > 100 µM | > 100 µM | > 100 µM | > 100 µM | > 100 µM |  |  |  |  |  |  |  |  | 
21 | COc1ccc(N2C(=O)C3c4[nH]c5ccc(F)cc5c4C4CCC(c5ccccc5)CC4C3C2=O)cc1 (configuration not stated) | > 100 µM | > 100 µM | > 100 µM | 53.9 µM | > 100 µM |  |  |  |  |  |  |  |  | 
